Experimental data published in US20240316023A1, “BENEDIN, PIPERIDINE, 2-BENZHYDRYL-3-HYDROXY-N-METHYL-, HYDROCHLORIDE AND DERIVATIVES THEREOF FOR USE IN TREATING KLEINE-LEVIN SYNDROME” (priority 2021, published 2024).

Legend:
[1] = test system: patients with frequent episodes of KLS; conditions: compared to rest of stimulants; cited from earlier work
[2] = test system: Mice, C57BL/6J, male; assay: Novel object recognition (NOR) test, long-term memory; format: in vivo; conditions: donepezil 2 mg/kg i.p.; 3-days interval
Experimental: Long-term episodic memory was tested in the NOR test, using a 3-days interval between the acquisition session (called sample trial) and the retention session (called choice trial). This method allows to detect an improvement of memory in the natural forgetting condition:
The test was carried out in circular boxes (30 cm diameter, 40 cm high). The objects to be discriminated (L≈1≈h≈3-4 cm) differed in both color and shape and were referred as yellow duck and blue lego. They were fixed with a magnet to the floor of the boxes at 5 cm of the wall, 20 cm distant. Apparently, they have no natural significance for mice and they have never been associated with a reinforcement. In order to rule out the possibility of scent traces left on the objects and therefore the dependency of the recognition capacity of mice on the olfactory cue, the objects and the ground of the box were washed with an odorless disinfectant (Sanicid® diluted in water) and dried between each trial. A camcorder was fixed to the ceiling above the box to record the animals' activity. The experiment was analyzed blindly at a later time.
On the week before the test, animals were handled by the experimenter in charge of the experiment in order to be not stressed at the time of testing. For this purpose, the experimenter placed a small amount of litter, and then the mouse on its hand. […] The NOR test was completed over five days (see FIG. 1): • Day 1: Habituation trial. Animals were individually placed for a 15-min free exploration session in empty open boxes. • Day 2. Treatment administration and sample trial. […] They were individually placed 30 min after in the apparatus for a 6-min session with two identical objects (Duck, 50% of animals or Lego, 50% of animals). • […]. […]. The mice were individually placed for a 6-min session in the apparatus with two objects (Duck and Lego), one of the objects presented in sample trials (termed as familiar objects) and a novel object (Lego, 50% of animals or Duck, 50% of animals).
The sample and choice trials were recorded with the camera located above the apparatus. The time spent by mice in exploring the objects was measured during the sample trial and the choice trial.
Exploration of an object was defined as follows: directing the nose to the object at a distance≤2 cm and/or touching it with the nose or forelimbs: turning around or biting the object, or sitting on the object were not considered as exploratory behavior.
Data recorded: • L=exploration time of the left object in the sample trial. • R=exploration time of the right object in the sample trial. • N=exploration time of the new object in the choice trial. • F=exploration time of the familiar object in the choice trial. Object recognition task indices include the following parameters: • Exploration indices: • ST=L+R=exploration time (left object+right object) in the sample trial. • CT=N+F=exploration time (new object+familiar object) in the choice trial. • Two memory indices: • N−F=difference of exploration time between the new object and the familiar object in the choice trial.
Statistical analyses: • Read-outs: DI, N−F, ST, CT, N, F • Unpaired Student's t test: Donep 2 group vs. Control group. • One-way ANOVA, Dunnett test: • Benedin groups vs. Control group. • Benedin groups vs. Donep 2 group. • Read-outs: DI and N−F, for all groups, paired Student's t test, difference vs. 0. • Body weight: one-way ANOVA.

| Compound | response (reducing the number of episodes) [1] [%] | recognition of the familiar object, i.e. memory [2] |
| --- | --- | --- |
| NC12CC3CC(CC(C3)C1)C2 [Amantadine] | 41 | – |
| Donepezil hydrochloride [reference compound] | – | improved the recognition of the familiar object |
